The source of these data is patent US10456374B2, “Pyrrolidone carboxylic acid (PCA) for ophthalmic use” (Laboratori Baldacci S.p.A., priority 2015, dated 2019).

A short description of data set [1]: Ex vivo transcorneal permeation through isolated rabbit cornea. The format is in vitro ADME. The conditions noted are these: donor RBB pH 7.6 with 0.02% w/w PCA and 0.04% w/w hyaluronic acid, 32° C. An excerpt: Evaluation of PCA Ex Vivo Transcorneal Permeation of a Composition According to Example 2 Through Isolated Rabbit Cornea.
For the determination of ex vivo corneal permeability, rabbit corneas obtained after proptosis of the eye, performed immediately after the animal euthanization, were used. The rabbits were New Zealand albino rabbits (n=3) and were euthanized by intravenous injection of Pentothal sodium (Farmaceutici Gellini, Aprilia, Italy). After the eyes were proptosed, the cornea, with 2 mm of sclera, was immediately excised and mounted in a perfusion apparatus. During the preparation, particular attention was paid to prevent the exfoliation of the corneal epithelium and its contact with any solid surfaces. […]
After the permeation experiment start, at appropriate intervals of time (15, 30, 60, 90, 120, 180 and 240 minutes), 0.50 mL of solution were withdrawn from the receiving compartment (endothelial side) and replaced with fresh RBB. At the end of the experiment, the entire donor phase was collected and submitted to quantitative determination of the active ingredient in a similar manner as provided for the samples of the receiving phase.
Quantitative analysis of PCA was performed by HPLC using a C18 reverse phase column C18 (Bondclone 10 μm 300×3.9 mm), and the eluent was a 98:2 mixture buffer solution to acetonitrile. […]

Data set [2] in a line: Residence in the ocular tissue. The settings on record: stated in the description, no test described.
The conditions of data set [3]: Pescina et al, 2015; cited from earlier work.

Turning to `O=C1CCC(C(=O)O)N1` (stereo not shown) [PCA, Pyrrolidone carboxylic acid], the Papp at 240 min, 0.02 % w/w in data set [1] (New Zealand albino, isolated rabbit cornea, read-out: PCA corneal permeability) stood at 3.95 ×10⁻⁶ cm/s. Also, the “PCA found in the receiving compartment, of the amount present in the donor compartment” value in data set [1] (end of the experiment (240 minutes)) was 0.051 % w/w. The “Period of time PCA remains in the ocular tissue” value in data set [2] is reported as “greater than 3 hours”.

`O=C1OC2(c3ccc(O)cc3Oc3cc(O)ccc32)c2ccccc21` [sodium fluorescein]: in data set [3], the “permeability through porcine cornea” value is 0.05 10^−5 cm/s.
